The values that follow come from ChEMBL document CHEMBL1147195, “Synthesis and activity of quinolinyl-methylene-thiazolinones as potent and selective cyclin-dependent kinase 1 inhibitors” (Bioorg Med Chem Lett, 2007).

pIC50, pKi: −log10 of the molar value. Some results are limits rather than exact numbers.

Experiment [1] can be described thus: Inhibition of CDK1/cyclinB. Details: species or system Homo sapiens.
Experiment [2] has as its system SJSA-1. The experiment is described as follows: Antiproliferative activity against human SJSA1 cells. It counts as functional, cell-based.
Experiment [3] deals with Serine/threonine-protein kinase AKT (Homo sapiens, UniProt P31751+Q9Y243+P31749). In words: Inhibition of AKT. The class given is protein assay.
For experiment [4], the target named is Tyrosine-protein kinase Fyn (Homo sapiens, UniProt P06241). In words: Inhibition of FYN.
Tyrosine-protein kinase Fyn, sequence (P06241 whole entry): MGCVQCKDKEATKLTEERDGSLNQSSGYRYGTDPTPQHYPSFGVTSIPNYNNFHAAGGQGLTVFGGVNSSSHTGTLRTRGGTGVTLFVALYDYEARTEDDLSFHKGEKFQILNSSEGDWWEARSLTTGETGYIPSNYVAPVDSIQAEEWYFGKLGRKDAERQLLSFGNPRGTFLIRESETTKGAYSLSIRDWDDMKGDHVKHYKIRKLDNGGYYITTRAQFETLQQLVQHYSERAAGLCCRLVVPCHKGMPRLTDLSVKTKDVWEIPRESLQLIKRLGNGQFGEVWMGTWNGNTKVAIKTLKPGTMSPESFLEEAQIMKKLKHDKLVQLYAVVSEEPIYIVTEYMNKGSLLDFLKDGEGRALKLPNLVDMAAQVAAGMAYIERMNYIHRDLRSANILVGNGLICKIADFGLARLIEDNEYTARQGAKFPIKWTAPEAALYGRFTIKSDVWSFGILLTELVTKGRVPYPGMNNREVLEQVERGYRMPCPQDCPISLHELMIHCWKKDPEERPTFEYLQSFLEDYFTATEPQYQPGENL
For experiment [5], the target named is Cyclin-dependent kinase 2 (Homo sapiens, UniProt P24941). The experiment is described as follows: Inhibition of CDK2.
Experiment [6] deals with Mitogen-activated protein kinase 1 (Homo sapiens, UniProt P28482). The experiment is described as follows: Inhibition of ERK.
Mitogen-activated protein kinase 1, sequence (P28482 whole entry): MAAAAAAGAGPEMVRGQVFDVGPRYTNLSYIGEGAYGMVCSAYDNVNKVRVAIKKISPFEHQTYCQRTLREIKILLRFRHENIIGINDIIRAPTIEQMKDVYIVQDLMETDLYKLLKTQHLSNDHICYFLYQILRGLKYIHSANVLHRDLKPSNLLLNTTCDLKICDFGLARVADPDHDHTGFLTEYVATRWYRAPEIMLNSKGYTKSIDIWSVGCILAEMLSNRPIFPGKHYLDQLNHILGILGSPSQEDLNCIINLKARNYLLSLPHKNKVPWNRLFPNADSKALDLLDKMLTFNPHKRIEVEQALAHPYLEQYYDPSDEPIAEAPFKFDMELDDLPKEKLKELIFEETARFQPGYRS
For experiment [7], the target named is Ribosomal protein S6 kinase alpha-3 (Homo sapiens, UniProt P51812).
Ribosomal protein S6 kinase alpha-3, sequence (P51812 whole entry): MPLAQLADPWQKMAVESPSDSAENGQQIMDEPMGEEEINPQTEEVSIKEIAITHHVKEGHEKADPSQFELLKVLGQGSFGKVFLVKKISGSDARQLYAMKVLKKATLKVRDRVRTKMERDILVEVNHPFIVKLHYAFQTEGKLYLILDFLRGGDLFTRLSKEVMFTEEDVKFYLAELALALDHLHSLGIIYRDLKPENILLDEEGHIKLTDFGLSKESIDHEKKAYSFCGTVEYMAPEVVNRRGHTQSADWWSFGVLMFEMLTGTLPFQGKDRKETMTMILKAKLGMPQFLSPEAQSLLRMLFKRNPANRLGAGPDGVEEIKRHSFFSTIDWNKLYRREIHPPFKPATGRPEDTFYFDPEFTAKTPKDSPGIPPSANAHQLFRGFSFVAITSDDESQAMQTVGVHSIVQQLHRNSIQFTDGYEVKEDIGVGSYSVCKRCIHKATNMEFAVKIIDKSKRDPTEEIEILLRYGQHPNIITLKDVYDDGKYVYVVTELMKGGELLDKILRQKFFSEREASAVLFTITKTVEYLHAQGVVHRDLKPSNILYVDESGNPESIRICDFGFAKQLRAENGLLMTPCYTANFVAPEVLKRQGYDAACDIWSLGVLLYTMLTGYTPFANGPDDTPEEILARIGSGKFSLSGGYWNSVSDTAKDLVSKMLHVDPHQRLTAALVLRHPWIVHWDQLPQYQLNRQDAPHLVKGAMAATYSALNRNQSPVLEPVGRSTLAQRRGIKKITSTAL
Experiment [8] deals with Cyclin-dependent kinase 4 (Homo sapiens, UniProt P11802). In words: Inhibition of CDK4.
Cyclin-dependent kinase 4, sequence (P11802 whole entry): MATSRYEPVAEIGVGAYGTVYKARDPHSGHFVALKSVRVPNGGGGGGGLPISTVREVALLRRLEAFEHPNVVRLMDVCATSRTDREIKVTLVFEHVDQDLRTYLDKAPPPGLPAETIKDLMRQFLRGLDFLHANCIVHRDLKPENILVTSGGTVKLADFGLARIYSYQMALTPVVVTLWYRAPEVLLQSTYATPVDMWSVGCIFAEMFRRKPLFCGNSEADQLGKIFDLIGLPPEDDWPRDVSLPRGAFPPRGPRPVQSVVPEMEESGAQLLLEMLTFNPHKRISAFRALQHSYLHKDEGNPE
Experiment [9] addresses T1, Ephrin type-B receptor 3 (Homo sapiens, UniProt P54753).
T1 sequence (P54753 whole entry): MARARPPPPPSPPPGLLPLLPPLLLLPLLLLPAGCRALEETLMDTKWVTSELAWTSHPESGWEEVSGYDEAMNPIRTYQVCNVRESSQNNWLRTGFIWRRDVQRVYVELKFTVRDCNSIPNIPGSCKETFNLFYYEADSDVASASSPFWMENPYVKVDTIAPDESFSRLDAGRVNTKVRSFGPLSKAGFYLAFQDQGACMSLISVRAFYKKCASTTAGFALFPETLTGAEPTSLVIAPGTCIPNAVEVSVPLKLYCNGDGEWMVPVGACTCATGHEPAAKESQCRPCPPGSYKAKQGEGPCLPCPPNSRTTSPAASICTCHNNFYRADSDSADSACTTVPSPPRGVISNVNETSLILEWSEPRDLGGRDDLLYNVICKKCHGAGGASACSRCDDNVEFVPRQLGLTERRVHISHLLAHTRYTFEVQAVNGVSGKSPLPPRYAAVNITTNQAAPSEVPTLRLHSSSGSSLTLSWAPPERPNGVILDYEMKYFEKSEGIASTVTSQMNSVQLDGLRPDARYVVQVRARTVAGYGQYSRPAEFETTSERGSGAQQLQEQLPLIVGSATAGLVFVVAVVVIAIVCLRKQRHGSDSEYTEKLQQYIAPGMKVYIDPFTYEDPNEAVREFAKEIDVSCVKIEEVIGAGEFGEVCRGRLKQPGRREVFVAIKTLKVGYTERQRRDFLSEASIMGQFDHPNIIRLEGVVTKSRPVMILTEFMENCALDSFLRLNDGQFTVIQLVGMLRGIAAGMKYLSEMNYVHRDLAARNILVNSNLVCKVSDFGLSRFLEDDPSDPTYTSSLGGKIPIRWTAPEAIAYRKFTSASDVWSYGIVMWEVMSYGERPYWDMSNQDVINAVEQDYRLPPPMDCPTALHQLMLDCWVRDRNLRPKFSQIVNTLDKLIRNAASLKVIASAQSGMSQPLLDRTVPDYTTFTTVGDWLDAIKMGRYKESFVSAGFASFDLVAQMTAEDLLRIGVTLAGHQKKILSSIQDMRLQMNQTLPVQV
In words: Inhibition of EPHB3.

Experiment [10] deals with Glycogen synthase kinase-3 (Homo sapiens, UniProt P49840+P49841). In words: Inhibition of GSKp1. The class given is protein assay.
Experiment [11] addresses Protein kinase C delta type (Homo sapiens, UniProt Q05655). In words: Inhibition of PKCd.
Experiment [12] has as its target Protein kinase C alpha type (Homo sapiens, UniProt P17252). The experiment is described as follows: Inhibition of PKCa.

Protein kinase C delta type, sequence (Q05655 whole entry): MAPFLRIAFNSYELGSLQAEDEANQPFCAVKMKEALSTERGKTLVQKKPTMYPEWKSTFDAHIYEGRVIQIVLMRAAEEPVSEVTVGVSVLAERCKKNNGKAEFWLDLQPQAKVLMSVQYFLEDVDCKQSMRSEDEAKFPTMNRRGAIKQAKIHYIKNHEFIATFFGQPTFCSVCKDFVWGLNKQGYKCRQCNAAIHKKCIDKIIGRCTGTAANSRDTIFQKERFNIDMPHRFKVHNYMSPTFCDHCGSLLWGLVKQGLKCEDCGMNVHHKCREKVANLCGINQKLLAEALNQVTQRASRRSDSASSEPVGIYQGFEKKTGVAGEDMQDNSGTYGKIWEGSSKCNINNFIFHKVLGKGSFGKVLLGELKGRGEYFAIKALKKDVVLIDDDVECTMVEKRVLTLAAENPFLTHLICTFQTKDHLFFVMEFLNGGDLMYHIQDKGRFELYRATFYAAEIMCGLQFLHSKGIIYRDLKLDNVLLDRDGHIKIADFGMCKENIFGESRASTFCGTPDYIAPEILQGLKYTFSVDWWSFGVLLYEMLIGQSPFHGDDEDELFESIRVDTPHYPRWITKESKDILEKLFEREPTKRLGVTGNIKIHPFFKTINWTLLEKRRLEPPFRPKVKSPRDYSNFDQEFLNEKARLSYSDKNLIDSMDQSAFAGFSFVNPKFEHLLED

`O=C1N=C(NCCc2ccc(Br)cc2)S/C1=C\c1ccc2ncccc2c1` gave a pKi in experiment [1] of 6.19. The same measure, in the same setting: the result for `COc1ccccc1CCNC1=NC(=O)/C(=C/c2ccc3ncccc3c2)S1` reads 7.20; that for `CNC1=NC(=O)/C(=C/c2ccc3ncccc3c2)S1`, 6.57. Consider `CCCCNC1=NC(=O)/C(=C/c2ccc3ncccc3c2)S1`, for which the pKi in experiment [1] is 6.51. The same measure, in the same setting: the result for `O=C1N=C(NCc2ccccc2)S/C1=C\c1ccc2ncccc2c1` reads 6.82; that for `O=C1N=C(NCc2ccccn2)S/C1=C\c1ccc2ncccc2c1`, 6.51; that for `CCOc1ccccc1CCNC1=NC(=O)/C(=C/c2ccc3ncccc3c2)S1`, 7.06.

Take `O=C1N=C(NCCc2cccc(Cl)c2)S/C1=C\c1ccc2ncccc2c1`: the negative-log Ki (pKi) in [1] is 6.89. On the same count and under the same terms, the result for `CONC1=NC(=O)/C(=C/c2ccc3ncccc3c2)S1` reads < 5.70; that for `O=C1N=C(NCCc2cccc(F)c2)S/C1=C\c1ccc2ncccc2c1`, 7.22; that for `O=C1N=C(NCCc2cccs2)S/C1=C\c1ccc2ncccc2c1`, 7.35. As for `O=C1N=C(NCCc2ccc(F)cc2)S/C1=C\c1ccc2ncccc2c1`, in experiment [1], the negative logarithm of the Ki (pKi) is 7.21.

`COc1ccccc1CNC1=NC(=O)/C(=C/c2ccc3ncccc3c2)S1` showed a negative-log Ki (pKi) in experiment [1] of 7.07. The same measure, in the same setting: the result for `O=C1N=C(NCc2c(Cl)cccc2Cl)S/C1=C\c1ccc2ncccc2c1` reads 5.98; that for `O=C1N=C(N[C@H](CO)Cc2ccccc2)S/C1=C\c1ccc2ncccc2c1`, 5.70; that for `O=C1N=C(N[C@H](CO)c2ccccc2)S/C1=C\c1ccc2ncccc2c1`, 6.24. Still for that read-out and setting: the result for `COC[C@H](NC1=NC(=O)/C(=C/c2ccc3ncccc3c2)S1)c1ccccc1` reads < 5.70. In [2], `O=C1N=C(N[C@@H]2C[C@H]2c2ccccc2)S/C1=C\c1ccc2ncccc2c1` had a negative-log IC50 (pIC50) of 5.73. Moreover, the inhibition constant (Ki) in [3] and in experiment [10] was > 2000 nM each time. The pKi is < 5.70 in experiment [4]; < 5.70 in [5]; 6.66 in experiment [6]; < 5.70 in experiment [7]; < 5.70 in [8]; < 5.70 in experiment [9]. Also, the pKi in experiment [1] was 7.64; in [11], 6.32; in experiment [12], < 5.70. Turning to `CN(Cc1cccs1)C1=NC(=O)/C(=C/c2ccc3ncccc3c2)S1`, in experiment [1], the pKi was < 5.70.

As to `O=C1N=C(NCCc2ccccc2Cl)S/C1=C\c1ccc2ncccc2c1`, in [1], the pKi was 7.34.

In turn, `COc1ccc(CCNC2=NC(=O)/C(=C/c3ccc4ncccc4c3)S2)cc1` gave a pKi in experiment [1] of 6.41.

For the compound `Cc1ccsc1CNC1=NC(=O)/C(=C/c2ccc3ncccc3c2)S1`, the pKi in experiment [1] is 7.05. On the same count and under the same terms, the result for `O=C1N=C(NCc2ccccc2Br)S/C1=C\c1ccc2ncccc2c1` reads 7.42; that for `O=C1N=C(Nc2ccccc2)S/C1=C\c1ccc2ncccc2c1`, < 5.70. As to `O=C1N=C(NCCCc2ccccc2)S/C1=C\c1ccc2ncccc2c1`, the negative logarithm of the Ki (pKi) in [1] was 6.62. In experiment [2], `O=C1N=C(N[C@@H](CO)Cc2ccccc2)S/C1=C\c1ccc2ncccc2c1` had a negative-log IC50 (pIC50) of 5.49. For the same compound, in experiment [1], the negative-log Ki (pKi) is 6.64. With `O=C1N=C(N[C@@H](CO)c2ccccc2)S/C1=C\c1ccc2ncccc2c1`, the negative logarithm of the Ki (pKi) in experiment [1] was 6.46. The same measure, in the same setting: the result for `O=C1N=C(NCC(CO)c2ccccc2)S/C1=C\c1ccc2ncccc2c1` (stereo not given) reads 6.41. The compound `O=C1N=C(NCc2cccs2)S/C1=C\c1ccc2ncccc2c1` showed a negative-log IC50 (pIC50) in [2] of 5.34. The inhibition constant Ki is > 2000 nM in experiment [3] and 500 nM in experiment [10]. Moreover, the negative-log Ki (pKi) in experiment [4] is < 5.70; in [6], 5.70; in experiment [9], < 5.70; in [11], 6.49; in [12] it was < 5.70. `O=C1N=C(NCCc2ccc(Cl)cc2)S/C1=C\c1ccc2ncccc2c1` gave a pKi in experiment [1] of 6.39. Still for that read-out and setting: the result for `O=C1N=C(NC2CC2)S/C1=C\c1ccc2ncccc2c1` reads 6.57. As to `NC1=NC(=O)/C(=C/c2ccc3ncccc3c2)S1`, the inhibition constant (Ki) in experiment [3] and in experiment [10] was > 2000 nM throughout. For the same compound, the pKi in experiment [4] is < 5.70; in experiment [5], 5.70; in experiment [6] it was < 5.70; in experiment [7], < 5.70; in experiment [8] it was < 5.70; in [9] it was < 5.70. In addition, the negative-log Ki (pKi) in experiment [1] is 7.10; in [11], 5.77; in [12], < 5.70.

Regarding `O=C1N=C(NCCc2ccccn2)S/C1=C\c1ccc2ncccc2c1`, the negative-log Ki (pKi) in [1] is 6.55. Still for that read-out and setting: the result for `O=C1N=C(NCCc2ccccc2)S/C1=C\c1ccc2ncccc2c1` reads 7.22; that for `O=C1N=C(NCCc2ccccc2F)S/C1=C\c1ccc2ncccc2c1`, 6.92. Same read-out and setting: the result for `O=C1N=C(NCc2ccccc2Cl)S/C1=C\c1ccc2ncccc2c1` reads 7.28.
